Test results reported in US11801239B2, “Powder injection of the donepezil semi palmoxiric acid salt, composition containing same and preparation method therefor” (priority 2017, dated 2023).

Legend:
[1] = for Appearance observed: dry powder; for Angle of repose: funnel method, arctg (H/r); for fluidity: judged from angle of repose
Method: The angle of repose is a common index for evaluating the fluidity of dry powder. When measuring the angle of repose, the funnel is fixed at a suitable height H. The dry powder prepared in Example 1 was placed in a funnel and naturally leaked to form a pile until tip of the cone almost contacts the outlet of the funnel. Then, the radius r of the bottom surface of the cone was measured, and the angle of repose is arctg (H/r).

[2] = measured by a laser granulometer
Method: Step 3: 0.2 g of donepezil semi pamoate seed crystals (the preparation method refers to example 4 of patent WO2013078608) were added into the filtrate obtained in step 1 to obtain a solution. Then the filtrate obtained in step 2 was slowly and dropwise added into the above solution at room temperature over 1 hour, slowly stirred for 5-10 hours with an anchor stir bar and filtered.
Step 1 and step 2 are the same as those of powder 1 #. Step 3: 0.2 g of donepezil semi pamoate seed crystals (the preparation method is the same as above) were added into the filtrate obtained in step 1 to obtain a solution. Then the filtrate obtained in step 2 was slowly and dropwise added into the above solution at 4-10° C. over 1 hour, stirred for 1-2 hours at room temperature and filtered.
Step 1 and step 2 are the same as those of powder 1 #. Step 3: 0.2 g of donepezil semi pamoate seed crystals (the preparation method refers to patent WO2013078608) were added into the filtrate obtained in step 1 to obtain a solution. Then the obtained solution was heated to 50-60° C. The filtrate obtained in step 2 was slowly and dropwise added into the above solution. After completion of the addition, the reaction solution was cooled to room temperature, stirred for 1-2 hours, and filtered.

[3] = 160° C. for 2 hours
Method: The powder 3 # prepared in Example 1 was placed at 160° C. for 2 hours, and the changes in appearance and weight loss thereof were recorded.

| SMILES | Appearance observed [1] | Angle of repose [1] [°] | fluidity [1] | average particle size D50 [2] [µm] | changes in appearance [3] | weight loss [3] |
| --- | --- | --- | --- | --- | --- | --- |
| COc1cc2c(cc1OC)C(=O)C(CC1CCN(Cc3ccccc3)CC1)C2.COc1cc2c(cc1OC)C(=O)C(CC1CCN(Cc3ccccc3)CC1)C2.O=C(O)c1cc2ccccc2c(Cc2c(O)c(C(=O)O)cc3ccccc23)c1O [Powder 4#, donepezil semi pamoate] | Homogeneous solid particles | 38 ± 3 | certain fluidity | 3 ± 1 |  |  |
| COc1cc2c(cc1OC)C(=O)C(CC1CCN(Cc3ccccc3)CC1)C2.COc1cc2c(cc1OC)C(=O)C(CC1CCN(Cc3ccccc3)CC1)C2.O=C(O)c1cc2ccccc2c(Cc2c(O)c(C(=O)O)cc3ccccc23)c1O [Powder 3#, donepezil semi pamoate] | Homogeneous solid particles | 42 ± 1 | certain fluidity | 13 ± 2 | gradually changed from light yellow to bright brown, and finally coagulated and melted | about 5.14% |
| COc1cc2c(cc1OC)C(=O)C(CC1CCN(Cc3ccccc3)CC1)C2.COc1cc2c(cc1OC)C(=O)C(CC1CCN(Cc3ccccc3)CC1)C2.O=C(O)c1cc2ccccc2c(Cc2c(O)c(C(=O)O)cc3ccccc23)c1O [Powder 2#, donepezil semi pamoate] | Homogeneous solid particles | 35 ± 3 | certain fluidity | 42 ± 10 |  |  |
| COc1cc2c(cc1OC)C(=O)C(CC1CCN(Cc3ccccc3)CC1)C2.COc1cc2c(cc1OC)C(=O)C(CC1CCN(Cc3ccccc3)CC1)C2.O=C(O)c1cc2ccccc2c(Cc2c(O)c(C(=O)O)cc3ccccc23)c1O [Powder 1#, donepezil semi pamoate] | Homogeneous solid particles | 28 ± 4 | certain fluidity | 90 ± 17 |  |  |
| COc1cc2c(cc1OC)C(=O)C(CC1CCN(Cc3ccccc3)CC1)C2.COc1cc2c(cc1OC)C(=O)C(CC1CCN(Cc3ccccc3)CC1)C2.O=C(O)c1cc2ccccc2c(Cc2c(O)c(C(=O)O)cc3ccccc23)c1O [Powder 5#, donepezil semi pamoate] | Obvious static electricity, | 50 ± 4 | poor fluidity | 0.9 ± 0.4 |  |  |
